Measurements: publication PMC9871744 (Cellular and Molecular Gastroenterology and Hepatology, 2022)
Where “and” joins values, the source holds several entries; their conditions need not be identical. Equal entries are not always repeated.

Columns and labels:
MDA-kb2 cells = assay: Cytotoxicity in the androgen receptor reporter cells; type: cell-based
[1] = Pharmacokinetics and detection in blood by LC-MS; type: in vivo, mice
HepG2 cells [2] = assay: Micronucleus analysis
female Wistar rats = assay: Toxicity / median lethal dose test, OECD guidelines 425; type: in vivo
Cytotoxicity evaluation = conditions: human, Cytotoxicity (%); for cytotoxicity at 0.05 mmol/L: 0.050 mmol/L; for cytotoxicity at 0.1 mmol/L: 0.100 mmol/L
HepG2 cells [3] = assay: Cytotoxicity evaluation
human fungiform TBC = assay: Ca2+ signaling in human fungiform TBC; type: cell-based
C57BL/6J male mice = assay: Diet-induced obesity; type: in vivo
[4] = test system: human androgen receptor (hAR); assay: Androgen receptor transcriptional activation and inhibition assays; type: cell-based
[5] = test system: S typhimurium tester strains TA98, TA100, TA1535, and TA1537 and E coli tester strain WP2uvrA(pKM101); conditions: all doses with and without S9
[6] = test system: chorda tympani (CT) nerve; assay: Chorda tympani; type: in vivo; conditions: lingual application in mice; 1, 2, and 4 mmol/L; normalized to NH4Cl 100 mmol/L
C57Bl/6 male mice = assay: Two-bottle preference and licking tests; type: in vivo; conditions: 50 μmol/L in 0.3% xanthan gum, 12 hours
[7] = bicompartmental model (Monolix), mice i.v.
[8] = extended treatment in the absence of S9 mix, 0.0065 mmol/L
[9] = extended treatment in the absence of S9 mix, 0.010 mmol/L
[10] = extended treatment in the absence of S9 mix, 0.020 mmol/L
[11] = extended treatment in the absence of S9 mix, 2.5 mmol/L (Table 14)
[12] = extended treatment in the absence of S9 mix, 5 mmol/L (Table 14)
[13] = extended treatment in the absence of S9 mix, 10 mmol/L (Table 14)
[14] = short treatment in the absence of S9 mix, 0.025 mmol/L
[15] = short treatment in the absence of S9 mix, 0.05 mmol/L
[16] = short treatment in the absence of S9 mix, 0.10 mmol/L
[17] = short treatment in the presence of S9 mix, 0.025 mmol/L
[18] = short treatment in the presence of S9 mix, 0.05 mmol/L
[19] = short treatment in the presence of S9 mix, 0.10 mmol/L
[20] = rats, single oral 2000 mg/kg, means ± SEM (n = 5)
[21] = extended treatment in the absence of S9 mix, 0.030 mmol/L
[22] = extended treatment in the absence of S9 mix, 0.040 mmol/L
[23] = short treatment in absence of S9 mix
[24] = short treatment in the presence of S9 mix
[25] = short treatment in absence of S9 mix, 0.025 mmol/L
[26] = short treatment in absence of S9 mix, 0.050 mmol/L
[27] = short treatment in absence of S9 mix, 0.100 mmol/L
[28] = short treatment in absence of S9 mix, 0.25 mmol/L
[29] = short treatment in the presence of S9 mix, 0.050 mmol/L
[30] = short treatment in the presence of S9 mix, 0.100 mmol/L
[31] = short treatment in the presence of S9 mix, 0.25 mmol/L

**Q.** What does the source list for `CCCCC/C=C\C/C=C\CCCCCCCCP(=O)(OCC)OCC` [NKS-3, diethyl (9Z,12Z)-octadeca-9,12-dien-1-ylphosphonate]?
**A.** cytotoxic concentrations (MDA-kb2 cells; MDA-kb2 cells): ≥ 10 µmol/L; highest non-cytotoxic concentration (MDA-kb2 cells; androgen receptor assays): 5 µmol/L; Intercompartmental clearance, population pharmacokinetic estimation mean [1, 7]: 0.739 L/h; Proportional residual error, population pharmacokinetic model [1, 7]: 1.89%; Volume of central compartment, population pharmacokinetic estimation mean [1, 7]: 0.0634 L; Volume of peripheral compartment, population pharmacokinetic estimation mean [1, 7]: 2.24 L; detection in blood circulation after intravenous injections (LC-MS) ([1]; mice): could be detected; AUClast as share of the total exposure ([1]; mice, intravenous 10 mg/kg): about 80%; AUClast ([1]; mice, intravenous 10 mg/kg body weight, NCA (AUC0–6 h), 10 mg/kg): 59.94 ± 12.09 mg/kg/Lxh; Tmax ([1]; mouse, plasma, iv, 10 mg/kg): 5 min; Vd ([1]; mouse, plasma, iv, 10 mg/kg): 1.23 ± 0.279 L/kg; clearance ([1]; mouse, plasma, iv, 10 mg/kg): 2.82 mL/min/kg and 3.37 mL/min; half-life ([1]; mouse, plasma, iv, 10 mg/kg): 4 h; AUC(0-t) ([1]; mouse, plasma, iv, 10 mg/kg, AUClast, mice, intravenous 10 mg/kg body weight, NCA (AUC0–6 h)): ~60000 ng·h/mL; Cmax ([1]; mouse, plasma, iv, 10 mg/kg, mice, dose of 10 mg/kg body weight): ~48000 ng/mL; Cmax ([1]; mouse, plasma, iv, 10 mg/kg, mice, intravenous 10 mg/kg body weight, NCA, means ± SEM, five mice): 46700 ± 15300 ng/mL; MNBN cells frequency (%) (HepG2 cells [2]; [8]): 0.8% and 0.6%; Mean frequency (%) of MNBN cells (HepG2 cells [2]; [8]): 0.70%; MNBN cells frequency (%) (HepG2 cells [2]; [9]): 0.9% and 0.8%; Mean frequency (%) of MNBN cells (HepG2 cells [2]; [9]): 0.85%; MNBN cells frequency (%) (HepG2 cells [2]; [10]): 0.9% and 0.6%; Mean frequency (%) of MNBN cells (HepG2 cells [2]; [10]): 0.75%; MNBN cells frequency (%) (HepG2 cells [2]; [11]): 0.9% and 0.7%; Mean frequency (%) of MNBN cells (HepG2 cells [2]; [11]): 0.80%; MNBN cells frequency (%) (HepG2 cells [2]; [12]): 0.9% and 0.8%; Mean frequency (%) of MNBN cells (HepG2 cells [2]; [12]): 0.85%; MNBN cells frequency (%) (HepG2 cells [2]; [13]): 1.0% and 0.9%; Mean frequency (%) of MNBN cells (HepG2 cells [2]; [13]): 0.95%; MNBN cells frequency (%) (HepG2 cells [2]; [14]): 0.6% and 0.5%; Mean frequency (%) of MNBN cells (HepG2 cells [2]; [14]): 0.55%; MNBN cells frequency (%) (HepG2 cells [2]; [15]): 0.7%; Mean frequency (%) of MNBN cells (HepG2 cells [2]; [15]): 0.70%; MNBN cells frequency (%) (HepG2 cells [2]; [16]): 0.7% and 0.6%; Mean frequency (%) of MNBN cells (HepG2 cells [2]; [16]): 0.65%; MNBN cells frequency (%) (HepG2 cells [2]; [17]): 0.7%; Mean frequency (%) of MNBN cells (HepG2 cells [2]; [17]): 0.70%; MNBN cells frequency (%) (HepG2 cells [2]; [18]): 0.6% and 0.8%; Mean frequency (%) of MNBN cells (HepG2 cells [2]; [18]): 0.70%; MNBN cells frequency (%) (HepG2 cells [2]; [19]): 0.6% and 0.4%; Mean frequency (%) of MNBN cells (HepG2 cells [2]; [19]): 0.50%; weight of kidneys (female Wistar rats; [20]): 1.82 ± 0.193 g; weight of liver (female Wistar rats; [20]): 8.12 ± 0.188 g; weight of spleen (female Wistar rats; [20]): 0.96 ± 0.12 g; toxic effect on liver enzymes and blood lipid parameters (female Wistar rats; rats, single oral limit dose 2000 mg/kg body weight, 2 weeks): No toxic effect; evidence of toxicity, preliminary study (female Wistar rats; single animal, oral dosages of 5000 mg/kg body weight): no evidence of toxicity; cytotoxicity at 0.0065 mmol/L (Cytotoxicity evaluation; [8]): 24.9%; cytotoxicity at 0.01 mmol/L (Cytotoxicity evaluation; [9]): 35.3%; cytotoxicity at 0.02 mmol/L (Cytotoxicity evaluation; [10]): 49.5%; cytotoxicity at 0.03 mmol/L (Cytotoxicity evaluation; [21]): 72.8%; cytotoxicity at 0.04 mmol/L (Cytotoxicity evaluation; [22]): 73.7%; cytotoxicity at 0.025 mmol/L (Cytotoxicity evaluation; [23]): -9.99%; cytotoxicity at 0.05 mmol/L (Cytotoxicity evaluation; [23]): 14.7%; cytotoxicity at 0.1 mmol/L (Cytotoxicity evaluation; [23]): 56.2%; cytotoxicity at 0.25 mmol/L (Cytotoxicity evaluation; [23]): 65.5%; cytotoxicity at 0.025 mmol/L (Cytotoxicity evaluation; [24]): -3.6%; cytotoxicity at 0.05 mmol/L (Cytotoxicity evaluation; [24]): -5.03%; cytotoxicity at 0.1 mmol/L (Cytotoxicity evaluation; [24]): 19.4%; cytotoxicity at 0.25 mmol/L (Cytotoxicity evaluation; [24]): 73%; concentrations with evidence of toxicity (HepG2 cells [3]; extended treatment in the absence of S9 mix): ≥ 30 µM; CBPI (HepG2 cells [3]; [8]): 1.64 and 1.74; Mean CBPI (HepG2 cells [3]; [8]): 1.69; CBPI (HepG2 cells [3]; [9]): 1.57 and 1.62; Mean CBPI (HepG2 cells [3]; [9]): 1.59; CBPI (HepG2 cells [3]; [10]): 1.47 and 1.46; Mean CBPI (HepG2 cells [3]; [10]): 1.46; CBPI (HepG2 cells [3]; [21]): 1.25; Mean CBPI (HepG2 cells [3]; [21]): 1.25; CBPI (HepG2 cells [3]; [22]): 1.24; Mean CBPI (HepG2 cells [3]; [22]): 1.24; Cytotoxicity (%) (HepG2 cells [3]; extended treatment in the absence of S9 mix, 0.062 mmol/L): Cell death; Cytotoxicity (%) (HepG2 cells [3]; extended treatment in the absence of S9 mix, 0.125 mmol/L): Cell death; CBPI (HepG2 cells [3]; [25]): 1.83 and 1.84; Mean CBPI (HepG2 cells [3]; [25]): 1.84; CBPI (HepG2 cells [3]; [26]): 1.64 and 1.66; Mean CBPI (HepG2 cells [3]; [26]): 1.65; CBPI (HepG2 cells [3]; [27]): 1.28 and 1.38; Mean CBPI (HepG2 cells [3]; [27]): 1.33; CBPI (HepG2 cells [3]; [28]): 1.28; Mean CBPI (HepG2 cells [3]; [28]): 1.26; Cytotoxicity (%) (HepG2 cells [3]; short treatment in absence of S9 mix, 0.40 mmol/L): Cell death; Cytotoxicity (%) (HepG2 cells [3]; short treatment in absence of S9 mix, 0.50 mmol/L): Cell death; Cytotoxicity (%) (HepG2 cells [3]; short treatment in absence of S9 mix, 1.00 mmol/L): Cell death; Cytotoxicity (%) (HepG2 cells [3]; short treatment in absence of S9 mix, 5.00 mmol/L): Cell death; Cytotoxicity (%) (HepG2 cells [3]; short treatment in absence of S9 mix, 10.00 mmol/L): Cell death; concentrations with evidence of toxicity (HepG2 cells [3]; short treatment in the absence of S9 mix): ≥ 250 µM; concentrations with evidence of toxicity (HepG2 cells [3]; [24]): ≥ 250 µM; CBPI (HepG2 cells [3]; [17]): 1.83 and 1.84; Mean CBPI (HepG2 cells [3]; [17]): 1.83; CBPI (HepG2 cells [3]; [29]): 1.86 and 1.82; Mean CBPI (HepG2 cells [3]; [29]): 1.84; CBPI (HepG2 cells [3]; [30]): 1.63 and 1.66; Mean CBPI (HepG2 cells [3]; [30]): 1.65; CBPI (HepG2 cells [3]; [31]): 1.20 and 1.23; Mean CBPI (HepG2 cells [3]; [31]): 1.22; Cytotoxicity (%) (HepG2 cells [3]; short treatment in the presence of S9 mix, 0.40 mmol/L): Cell death; Cytotoxicity (%) (HepG2 cells [3]; short treatment in the presence of S9 mix, 0.50 mmol/L): Cell death; Cytotoxicity (%) (HepG2 cells [3]; short treatment in the presence of S9 mix, 1.00 mmol/L): Cell death; Cytotoxicity (%) (HepG2 cells [3]; short treatment in the presence of S9 mix, 5.00 mmol/L): Cell death; Cytotoxicity (%) (HepG2 cells [3]; short treatment in the presence of S9 mix, 10.00 mmol/L): Cell death; Ca2+ signaling compared with a dietary long-chain fatty acid (human fungiform TBC): higher; increase in intracellular free Ca2+ concentrations, [Ca2+]i (human fungiform TBC; NKS-3 50 μmol/L, NKS-5 25 μmol/L): induced a rapid increase; CD36 (reduced) and GPR120 (high) protein expression in TBC, Western blots (C57BL/6J male mice; HFD animals, FTA intake 16 weeks): reversed this trend; locomotor activity (C57BL/6J male mice; HFD mice): increased; LA-induced decreases in [Ca2+]i in TBC from obese mice (C57BL/6J male mice; HFD mice given FTA 16 weeks): reversed; daily energy expenditure (indirect calorimetry) (C57BL/6J male mice; HFD-fed mice): significantly increased; leptin mRNA expression in adipose tissues (C57BL/6J male mice; HFD-fed mice): failed to significantly decrease; fecal microbiota: bacterial family increased (C57BL/6J male mice; HFD-fed mice, 16S rRNA sequencing, week 26): Marinifilaceae; adipose tissue mRNA encoding leptin, CD36, TNF-α, and IL6 (C57BL/6J male mice; HFD-fed mice, epididymal adipose tissue): down-regulated; crown-like structures of adipocytes (C57BL/6J male mice; obese animals, histology): decreased; release of GLP-1, CCK-1, and PYY into blood circulation (C57BL/6J male mice; obese mice, end of week 26): induced the release; androgenic or antiandrogenic property (conclusion) [4]: did not possess androgenic or antiandrogenic property; toxicity in the tester strains [5]: No toxicity; CT nerve responses compared with dietary LCFAs (LA, OA) [6]: higher; preference in 2-bottle paradigm versus control solution (C57Bl/6 male mice): significant preference
